Measured values taken from patent publication US11173142B2, “Cancer treatment composition” (BOTANICAL RESOURCE HOLDINGS (PROPRIETARY) LIMITED, priority 2015, dated 2021).

Experiments:
[1] = test system: breast epithelial carcinoma cells (MCF-7); test: XTT viability assay, breast epithelial carcinoma cells, 24-hour treatment with isolates; type: cell-based; settings: 24 hour incubation, FIG. 4; for effect on viability of cancer cells: 3 concentrations per component around 0.5, 1 and 2 ug/ml respectively
Description: (§1) To calculate doses, the concentrations of the specific components for serving sizes of 15 mg, 30 mg and 60 mg per person per day for Δ7 mesembrenone, mesembrenone and non-alkaloids respectively were expressed as a fraction of total body fluid volume. In an attempt to account for digestive losses, these concentrations were halved, to reach cell-culture “equivalent” doses of 0.5 ug/ml, 1 ug/ml and 2 ug/ml respectively. Following standard laboratory practice, a range of doses around these was assessed. For clarity, only 3 concentrations per component are presented (doses of 10-fold smaller were also tested for ail components, but were not different from lowest doses presented herein and thus omitted).
(§2) Briefly, the procedure itself entailed 24-hour treatment of confluent cell culture samples of normal breast epithelial cells (MCF-12A) and breast epithelial carcinoma cells (MCF-7) with varying doses of the test products. At the end of this period, the mitochondrial viability of cells was assessed using the XTT assay method. Viability was measured and expressed relative to an appropriate control.
Results are illustrated in FIG. 4 of the accompanying drawings. Results are expressed as the percentage of viable cells after a 24 hour incubation with the test substances. Bars are means of repeated experiments (a minimum of 3 repeat experiments in triplicate) and error bars indicate standard deviations from the mean. Asterisk (*) indicate significant reductions in cancer cell viability.

[2] = test system: normal breast epithelial cells (MCF-12A); test: XTT viability assay, normal breast epithelial cells, 24-hour treatment with isolates; type: cell-based; settings: 24 hour incubation, highest dose assessed, FIG. 4
Description: as §1, §2
Results are illustrated in FIG. 4 of the accompanying drawings. Results are expressed as the percentage of viable cells after a 24 hour incubation with the test substances. […]

Row | Structure (SMILES) | effect on viability of cancer cells [1] | effect on normal cell survival [2] | anti-cancer effect compared with the other isolates ([1]; Δ7 mesembrenone dosed 50% less than mesembrenone)
1 | COc1ccc([C@@]23C=CC(=O)C[C@@H]2N(C)CC3)cc1OC [mesembrenone] | clear dose-response effects | seemed to limit growth of normal cells to some extent | 
2 | COc1ccc(C23CCC(=O)C=C2N(C)CC3)cc1OC (centres unmarked) [Δ7 mesembrenone] | clear dose-response effects | not affecting normal cell survival | most potent anti-cancer effect
